In brackets after ≈: the same amount, converted by molar mass. Where a name gives a salt, the structure may show the parent alone. Read-outs that look alike come from different tables or passages of the source.
How the values were obtained:
[1] = tested on: A. baumannii (ARC3495); assay: MIC against A. baumannii; details: Acinetobacter baumannii, read-out: A. baumannii MIC (ARC3495) (mg/L)
[2] = tested on: K. pneumoniae (ATCC700603); assay: MIC against K. pneumoniae; details: Klebsiella pneumoniae, ATCC700603, read-out: K. pneumoniae MIC (ATCC700603)
[3] = tested on: P. aeruginosa WT (PAO1); assay: MIC, CLSI broth microdilution, P. aeruginosa; format: cell-based; details: Pseudomonas aeruginosa
[4] = molecular target: P. aeruginosa PBP1a (Pseudomonas aeruginosa, UniProt Q07806); format: biochemical; details: P. aeruginosa PBP1a 60 nM, BOCILLIN FL 30 nM, pH 7.0
[5] = molecular target: P. aeruginosa PBP3 (Pseudomonas aeruginosa, UniProt G3XD46); format: biochemical; details: P. aeruginosa PBP3 60 nM, BOCILLIN FL 30 nM, pH 7.0
[6] = tested on: E. coli (ATCC25922); assay: MIC against E. coli; details: Escherichia coli, ATCC25922, read-out: E. coli MIC (ATCC25922) (mg/L)
[7] = PAO1, CLSI broth microdilution, read-out: P. aeruginosa WT (PAO1) MIC

Chain of P. aeruginosa PBP3 (G3XD46 whole entry): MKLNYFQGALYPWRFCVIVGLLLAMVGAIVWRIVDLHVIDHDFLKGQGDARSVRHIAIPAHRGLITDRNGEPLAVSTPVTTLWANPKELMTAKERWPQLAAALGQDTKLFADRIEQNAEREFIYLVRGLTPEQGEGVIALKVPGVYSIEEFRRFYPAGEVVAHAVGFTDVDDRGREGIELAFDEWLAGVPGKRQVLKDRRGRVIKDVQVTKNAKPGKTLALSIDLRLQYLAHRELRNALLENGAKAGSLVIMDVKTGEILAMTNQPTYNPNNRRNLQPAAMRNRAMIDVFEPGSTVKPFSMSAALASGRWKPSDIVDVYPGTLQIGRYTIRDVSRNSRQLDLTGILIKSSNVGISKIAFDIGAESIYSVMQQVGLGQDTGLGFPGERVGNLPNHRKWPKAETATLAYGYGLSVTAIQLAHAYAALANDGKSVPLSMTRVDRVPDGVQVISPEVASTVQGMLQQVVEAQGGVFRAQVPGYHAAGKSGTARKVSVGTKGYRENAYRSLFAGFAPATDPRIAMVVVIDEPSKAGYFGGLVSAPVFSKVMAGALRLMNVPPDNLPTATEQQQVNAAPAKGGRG
Chain of P. aeruginosa PBP1a (Q07806 whole entry): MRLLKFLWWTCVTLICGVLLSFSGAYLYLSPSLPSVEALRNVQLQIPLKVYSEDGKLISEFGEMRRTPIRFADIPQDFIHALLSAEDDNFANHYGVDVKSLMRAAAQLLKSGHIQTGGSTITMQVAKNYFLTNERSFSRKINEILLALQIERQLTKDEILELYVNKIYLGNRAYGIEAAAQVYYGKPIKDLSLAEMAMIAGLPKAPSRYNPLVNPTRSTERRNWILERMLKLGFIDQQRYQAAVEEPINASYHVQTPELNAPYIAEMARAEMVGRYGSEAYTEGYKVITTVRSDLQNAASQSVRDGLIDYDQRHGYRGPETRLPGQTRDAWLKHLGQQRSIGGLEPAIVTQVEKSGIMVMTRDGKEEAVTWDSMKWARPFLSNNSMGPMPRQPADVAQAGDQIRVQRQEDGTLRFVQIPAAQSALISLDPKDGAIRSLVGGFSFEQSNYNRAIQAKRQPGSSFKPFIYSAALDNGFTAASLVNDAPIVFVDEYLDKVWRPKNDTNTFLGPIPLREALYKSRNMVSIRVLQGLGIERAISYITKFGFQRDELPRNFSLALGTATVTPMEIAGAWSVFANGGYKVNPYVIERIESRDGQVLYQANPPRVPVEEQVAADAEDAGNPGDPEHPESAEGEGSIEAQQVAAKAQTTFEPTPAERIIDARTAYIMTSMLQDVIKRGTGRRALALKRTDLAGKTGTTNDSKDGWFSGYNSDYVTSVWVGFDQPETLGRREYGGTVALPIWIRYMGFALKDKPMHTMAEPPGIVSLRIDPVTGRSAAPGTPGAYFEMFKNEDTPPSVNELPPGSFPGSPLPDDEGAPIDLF

Row | MIC [1] [mg/L] | MIC [2] [µg/mL] | MIC [3, 7] [mg/L] | MIC [6] [mg/L] | Structure (SMILES) | PBP1a acylation rate, k(on) (M^−1 · s^−1) [4] | PBP3 acylation rate, k(on) (M^−1 · s^−1) [5] | MIC ([3]; PAO1, read-out: P. aeruginosa WT (PAO1) MIC (mg/L)) [mg/L]
1 | > 16 | > 16 | > 16 | < 8 | CN/C(=N\OC(=O)NCc1cnn(C)c1)[C@@H]1c2c(cnn2C)[C@@H]2CN1C(=O)N2OS(=O)(=O)O (racemic) [Example 15, (4R,8S)-1-methyl-8-((Z)—N-methyl-N′-((((1-methyl-1H-pyrazol-4-yl)methyl)carbamoyl)oxy)carbamimidoyl)-6-oxo-4,8-dihydro-1H-4,7-methanopyrazolo[3,4-e][1,3]diazepin-5(6H)-yl hydrogen sulfate] | ** (** represents a k(on) of 100 to 10,000 M^−1 · s^−1) | *** (*** represents a k(on) > 10,000 M^−1 · s^−1) | 
2 | > 16 | 8 to 16 (≈ 17.9 to 35.8 µM) | 8 to 16 (≈ 17.9 to 35.8 µM) | 8 to 16 (≈ 17.9 to 35.8 µM) | CN/C(=N\OC(=O)NCC(N)=O)[C@@H]1c2c(cnn2C)[C@@H]2CN1C(=O)N2OS(=O)(=O)O (racemic) [Example 23] | ** (** represents a k(on) of 100 to 10,000 M^−1 · s^−1) | *** (*** represents a k(on) > 10,000 M^−1 · s^−1) | 
3 | 8 to 16 (≈ 17.4 to 34.9 µM) | 8 to 16 (≈ 17.4 to 34.9 µM) | < 8 | 8 to 16 (≈ 17.4 to 34.9 µM) | CN/C(=N\OC(=O)N[C@H]1CCNC1)[C@@H]1c2c(cnn2C)[C@@H]2CN1C(=O)N2OS(=O)(=O)O (racemic) [Example 24] | ** (** represents a k(on) of 100 to 10,000 M^−1 · s^−1) | *** (*** represents a k(on) > 10,000 M^−1 · s^−1) | 
4 | 8 to 16 (≈ 17.9 to 35.8 µM) | > 16 | < 8 | 8 to 16 (≈ 17.9 to 35.8 µM) | CN/C(=N\OC(=O)NCCCN)[C@@H]1c2c(cnn2C)[C@@H]2CN1C(=O)N2OS(=O)(=O)O (racemic) [Example 25] | ** (** represents a k(on) of 100 to 10,000 M^−1 · s^−1) | *** (*** represents a k(on) > 10,000 M^−1 · s^−1) | 
5 | > 16 | > 16 | 8 to 16 (≈ 17.3 to 34.7 µM) | < 8 | CN/C(=N\OC(=O)NCCC(=O)O)[C@@H]1c2c(cnn2C)[C@@H]2CN1C(=O)N2OS(=O)(=O)O (racemic) [Example 27] | ** (** represents a k(on) of 100 to 10,000 M^−1 · s^−1) | *** (*** represents a k(on) > 10,000 M^−1 · s^−1) | 
6 | 8 to 16 (≈ 16.4 to 32.9 µM) | > 16 | < 8 | < 8 | CN/C(=N\OC(=O)NCC1CCNCC1)[C@@H]1c2c(cnn2C)[C@@H]2CN1C(=O)N2OS(=O)(=O)O (racemic) [Example 28] | ** (** represents a k(on) of 100 to 10,000 M^−1 · s^−1) | *** (*** represents a k(on) > 10,000 M^−1 · s^−1) | 
7 | 8 to 16 (≈ 16.4 to 32.9 µM) | > 16 | < 8 | 8 to 16 (≈ 16.4 to 32.9 µM) | CN/C(=N\OC(=O)N[C@H]1CC[C@H](N)CC1)[C@@H]1c2c(cnn2C)[C@@H]2CN1C(=O)N2OS(=O)(=O)O (racemic) [Example 30] | ** (** represents a k(on) of 100 to 10,000 M^−1 · s^−1) | *** (*** represents a k(on) > 10,000 M^−1 · s^−1) | 
8 | > 16 | > 16 | > 16 | < 8 | CN/C(=N\OC(=O)NCCCC[C@H](N)C(=O)OC(C)(C)C)[C@@H]1c2c(cnn2C)[C@@H]2CN1C(=O)N2OS(=O)(=O)O (racemic) [Example 32] | ** (** represents a k(on) of 100 to 10,000 M^−1 · s^−1) | *** (*** represents a k(on) > 10,000 M^−1 · s^−1) | 

The next lines start with the molecule.

Row | Structure (SMILES) | MIC [1] [mg/L] | MIC [2] [µg/mL] | MIC [3, 7] [mg/L] | MIC [6] [mg/L] | PBP1a acylation rate, k(on) (M^−1 · s^−1) [4] | PBP3 acylation rate, k(on) (M^−1 · s^−1) [5] | MIC ([3]; PAO1, read-out: P. aeruginosa WT (PAO1) MIC (mg/L)) [mg/L]
9 | CN/C(=N\OC(=O)NCCC(N)=O)[C@@H]1c2c(cnn2C)[C@@H]2CN1C(=O)N2OS(=O)(=O)O (racemic) [Example 16] | > 16 | > 16 | 8 to 16 (≈ 17.4 to 34.8 µM) | 8 to 16 (≈ 17.4 to 34.8 µM) | ** (** represents a k(on) of 100 to 10,000 M^−1 · s^−1) | *** (*** represents a k(on) > 10,000 M^−1 · s^−1) | 
10 | CN/C(=N\OC(=O)NO)[C@@H]1c2c(cnn2C)[C@@H]2CN1C(=O)N2OS(=O)(=O)O (racemic) [Example 17] | > 16 | 8 to 16 (≈ 19.7 to 39.5 µM) | 8 to 16 (≈ 19.7 to 39.5 µM) | 8 to 16 (≈ 19.7 to 39.5 µM) | ** (** represents a k(on) of 100 to 10,000 M^−1 · s^−1) | *** (*** represents a k(on) > 10,000 M^−1 · s^−1) | 
11 | CN/C(=N\OC(=O)NCCN)[C@@H]1c2c(cnn2C)[C@@H]2CN1C(=O)N2OS(=O)(=O)O (racemic) [Example 18, (4R,8S)-8-((Z)—N′-(((2-aminoethyl)carbamoyl)oxy)-N-methylcarbamimidoyl)-1-methyl-6-oxo-4,8-dihydro-1H-4,7-methanopyrazolo[3,4-e][1,3]diazepin-5(6H)-yl hydrogen sulfate] | 8 to 16 | 8 to 16 | < 8 | < 8 | ** (** represents a k(on) of 100 to 10,000 M^−1 · s^−1) | *** (*** represents a k(on) > 10,000 M^−1 · s^−1) | 
12 | CN/C(=N\OC(=O)NCCCCN)[C@@H]1c2c(cnn2C)[C@@H]2CN1C(=O)N2OS(=O)(=O)O (racemic) [Example 19] | 8 to 16 (≈ 17.4 to 34.7 µM) | > 16 | < 8 | 8 to 16 (≈ 17.4 to 34.7 µM) | ** (** represents a k(on) of 100 to 10,000 M^−1 · s^−1) | *** (*** represents a k(on) > 10,000 M^−1 · s^−1) | 
13 | CNC(=O)O/N=C(\NC)[C@@H]1c2c(cnn2C)[C@@H]2CN1C(=O)N2OS(=O)(=O)O (racemic) [Example 20] | 8 to 16 (≈ 19.8 to 39.7 µM) | > 16 |  | 8 to 16 (≈ 19.8 to 39.7 µM) | ** (** represents a k(on) of 100 to 10,000 M^−1 · s^−1) | *** (*** represents a k(on) > 10,000 M^−1 · s^−1) | 8 to 16 (≈ 19.8 to 39.7 µM)
14 | CN/C(=N\OC(=O)N(C)C)[C@@H]1c2c(cnn2C)[C@@H]2CN1C(=O)N2OS(=O)(=O)O (racemic) [Example 21] | > 16 | > 16 | > 16 | < 8 | ** (** represents a k(on) of 100 to 10,000 M^−1 · s^−1) | *** (*** represents a k(on) > 10,000 M^−1 · s^−1) | 
15 | CN/C(=N\OC(=O)NCC(=O)O)[C@@H]1c2c(cnn2C)[C@@H]2CN1C(=O)N2OS(=O)(=O)O (racemic) [Example 22] | > 16 | 8 to 16 (≈ 17.9 to 35.8 µM) | 8 to 16 (≈ 17.9 to 35.8 µM) | < 8 | ** (** represents a k(on) of 100 to 10,000 M^−1 · s^−1) | *** (*** represents a k(on) > 10,000 M^−1 · s^−1) | 
16 | CN/C(=N\OC(=O)NC1CNC1)[C@@H]1c2c(cnn2C)[C@@H]2CN1C(=O)N2OS(=O)(=O)O (racemic) [Example 26] | < 8 | < 8 | < 8 | < 8 | ** (** represents a k(on) of 100 to 10,000 M^−1 · s^−1) | *** (*** represents a k(on) > 10,000 M^−1 · s^−1) | 
17 | CN/C(=N\OC(=O)NC1CCNCC1)[C@@H]1c2c(cnn2C)[C@@H]2CN1C(=O)N2OS(=O)(=O)O (racemic) [Example 29] | 8 to 16 (≈ 16.9 to 33.9 µM) | > 16 | < 8 | 8 to 16 (≈ 16.9 to 33.9 µM) | ** (** represents a k(on) of 100 to 10,000 M^−1 · s^−1) | *** (*** represents a k(on) > 10,000 M^−1 · s^−1) | 
18 | CN/C(=N\OC(=O)NCCCC[C@H](N)C(=O)O)[C@@H]1c2c(cnn2C)[C@@H]2CN1C(=O)N2OS(=O)(=O)O (racemic) [Example 31] | > 16 | > 16 | 8 to 16 (≈ 15.4 to 30.9 µM) | < 8 | ** (** represents a k(on) of 100 to 10,000 M^−1 · s^−1) | *** (*** represents a k(on) > 10,000 M^−1 · s^−1) | 

Source: US11046694B2, “Compounds and methods for treating bacterial infections” (Entasis Therapeutics, Inc., priority 2018, dated 2021)
